What was measured:
[1] = target: native AMPA receptors; settings: cited from earlier work; for Ki / IC50: native AMPA receptors, rat brain membranes, mean of three experiments; for Ki: read-out: [3H]AMPA Ki; for IC50: read-out: [3H]AMPA IC50 (footnote 4: IC50 values)
[2] = ferric reducing antioxidant power (FRAP) assay; settings: % of ascorbic acid activity; compounds and AA at 1 mM
Method: The total antioxidant potential of aryl-substituted phenylalanine derivatives was determined using FRAP assay. The FRAP reagent was prepared first by mixing acetate buffer (300 mM, pH 3.6), a solution of 10 mM TPTZ (2,4,6-tripyridyl-s-triazine, Sigma-Aldrich, Inc., St. Louis, MO, USA) in 40 mM HCl and 20 mM of iron (III) chloride hexahydrate (FeCl3 × 6H2O, Chempur, Piekary Śląskie, Poland) at 10:1:1 (v/v/v). The FRAP reagent (190 μL) and 1 mM of tested compound (10 μL) was added next to each well, mixed and incubated for 30 min. The absorbance was measured using a microplate reader EnSpire (PerkinElmer, Waltham, MA USA) at 593 nm. AA (1 mM, AMARA, Kraków, Poland) was used as the reference antioxidant. The results were expressed as % of ascorbic acid activity (%AAA). Analyses were performed in triplicate. • ORAC-FL

[3] = oxygen radical absorbance capacity fluorescent (ORAC-FL) assay; settings: Trolox equivalent, calculated at 5 µM of compounds and Trolox
Method: The ORAC-FL was performed according to procedure described in the literature. The reagents used in this assay, TX, fluorescein and 2,2′-azobis(2-amidinopropane) dihydrochloride (AAPH), were purchased from Sigma-Aldrich, Inc., St. Louis, MO, USA. The prepared ORAC-FL reagent consisted of 0.3 μM of fluorescein and 100 µM of AAPH dissolved in PBS buffer. The compounds and the reference antioxidant TX were tested at the concentration 2.5 µM and the results were compared to the blank in which no antioxidant was present. The assays were performed in black 96-well plates. The fluorescence readings were taken by a microplate reader EnSpire (PerkinElmer, Waltham, MA, USA) every minute for a duration of 240 min. The excitation wavelength was 485 nm and the emission wavelength was 520 nm. The area under the fluorescence decay curve (AUC) was calculated next by GraphPad Prism™ software (version 5.01, San Diego, CA, USA). All measurements were performed in triplicate. The TX equivalent (TE) was calculated next using the following Equation (1):TE = [(AUCsample − AUCblank)/(AUCTX − AUCblank)] × [CTX/Csample](1)

[4] = system: SH-SY5Y neuroblastoma cells; assay: neuroprotection against 6-OHDA-induced LDH release; format: cell-based, human; settings: compound 50 µM
Method: (§1) All cell culture protocols and assay conditions were applied as we reported previously. SH-SY5Y (ATCC® CRL-2266™) cell line was purchased from ATCC (Manassas, VA, USA). IMR-32 (ATCC® CCL-127™) cell line was kindly provided by the Department of Oncogenomics, Academisch Medisch Centrum, Amsterdam, Holland. Before each test SH-SY5Y or IMR-32 cells were seeded in 96-well plates with transparent bottom at a concentration of 2.5 × 10^4 cells/well in 100 μL of respective cell culture medium and cultured for 24 h to reach 70% confluence. • Cell Viability
(§2) CytoTox-ONE™ Homogeneous Membrane Integrity Assay, which based on the LDH release, was purchased from Promega (Madison, WI, USA). SH-SY5Y or IMR-32 cells were seeded in 96-well white plates with transparent bottom. For neuroprotective studies, the cells were preincubated first for 1 h with compound 1, 8 or reference antioxidants AA, TX (all at the concentration of 50 μM) and next the neurotoxin 6-OHDA (Sigma-Aldrich, Inc., St. Louis, MO, USA) was added at final concentration of 50 μM (SH-SY5Y assay) or 200 µM (IMR-32 assay). After 24 h of incubation, the CytoTox-ONE™ was added to each well and the cells were incubated next for 10 min at room temperature. The fluorescence was measured using a microplate reader EnSpire (PerkinElmer, Waltham, MA, USA) with an excitation wavelength of 560 nm and an emission wavelength of 590 nm. All measurements were performed in triplicate and results are shown as mean ± SD. The similar studies were also performed with SH-SY5Y cells injured by 100 μM of 6-OHDA (Figure S1, Supporting Materials). • ROS Assay

[5] = system: IMR-32 neuroblastoma cells; assay: neuroprotection against 6-OHDA-induced LDH release; format: cell-based, human; settings: IMR-32, compound 50 µM, 1 h pretreatment, 200 µM 6-OHDA, 24 h
Method: as §1, §2

[6] = 1 h pretreatment, 50 µM 6-OHDA, 24 h

Row | Structure (SMILES) | Ki [1] | FRAP (%AAA) [2] | ORAC (TE) [3] | IC50 [1] | selectivity over NMDA and KA receptors [1] | 6-OHDA-induced release of LDH (neuroprotection) ([4]; 100 µM 6-OHDA) | 6-OHDA-induced release of LDH (neuroprotection) [4, 6] | 6-OHDA-induced release of LDH (neuroprotection) [5]
1 | NC(Cc1cc(-c2ccc(O)cc2)c(Cl)c([N+](=O)[O-])c1)C(=O)O (centres unmarked) [Compound 21] | 23 µM | 2.76 %AAA | 2.56 TE | – | – | – | – | –
2 | NC(Cc1cc(Cl)c(Cl)c(-c2ccc(O)c(O)c2)c1)C(=O)O (centres unmarked) [Compound 4] | – | 177.23 %AAA | 4.02 TE | 12 µM | – | – | – | –
3 | NC(Cc1cccc(-c2cccc(O)c2)c1)C(=O)O (centres unmarked) [Compound 19] | – | 4.94 %AAA | 1.96 TE | 9.9 µM | – | – | – | –
4 | Nc1c(-c2cccc(O)c2)cc(CC(N)C(=O)O)cc1[N+](=O)[O-] (centres unmarked) [Compound 12] | 14 µM | 24.93 %AAA | 4.27 TE | – | – | – | – | –
5 | NC(Cc1cc(Cl)c(Cl)c(-c2ccccc2O)c1)C(=O)O (centres unmarked) [Compound 16] | – | 10.32 %AAA | 1.54 TE | 85 µM | – | – | – | –
6 | NC(Cc1cc(Cl)cc(-c2ccc(O)cc2)c1)C(=O)O (centres unmarked) [Compound 7] | 46 µM | 49.39 %AAA | 3.29 TE | – | – | – | – | –
7 | NC(Cc1cc(-c2ccc(O)cc2)cc([N+](=O)[O-])c1)C(=O)O (centres unmarked) [Compound 5] | 21 µM | 96.32 %AAA | 4.32 TE | – | – | – | – | –
8 | NC(Cc1cc(Cl)c(Cl)c(-c2cc(O)cc(O)c2)c1)C(=O)O (centres unmarked) [Compound 11] | – | 28.90 %AAA | 4.18 TE | 16 µM | – | – | – | –
9 | NC(Cc1ccc([N+](=O)[O-])c(-c2ccc(O)cc2)c1)C(=O)O (centres unmarked) [Compound 20] | 64 µM | 4.41 %AAA | 1.62 TE | – | – | – | – | –
10 | NC(Cc1ccc(Cl)c(-c2cccc(O)c2)c1)C(=O)O (centres unmarked) [Compound 13] | 9.2 µM | 24.08 %AAA | 2.86 TE | – | – | – | – | –
11 | Nc1c(Cl)cc(CC(N)C(=O)O)cc1-c1cccc(O)c1 (centres unmarked) [Compound 14] | 10 µM | 23.80 %AAA | 4.75 TE | – | – | – | – | –
12 | NC(Cc1ccc(Cl)c(-c2ccc(O)cc2)c1)C(=O)O (centres unmarked) [Compound 17] | 65 µM | 9.13 %AAA | 1.96 TE | – | – | – | – | –
13 | NC(Cc1cc(-c2cncc(O)c2)c(Cl)c([N+](=O)[O-])c1)C(=O)O (centres unmarked) [Compound 2] | 2 µM | 691.21 %AAA | 3.15 TE | – | high selectivity | – | – | –
14 | NC(Cc1cc(-c2cccc(O)c2)c(Cl)c([N+](=O)[O-])c1)C(=O)O (centres unmarked) [Compound 18] | 3.1 µM | 6.29 %AAA | 1.34 TE | – | high selectivity | – | – | –
15 | NC(Cc1ccc([N+](=O)[O-])c(-c2cccc(O)c2)c1)C(=O)O (centres unmarked) [Compound 10] | 21 µM | 32.04 %AAA | 1.43 TE | – | – | – | – | –
16 | O=C1O[C@H]([C@@H](O)CO)C(O)=C1O [AA, ascorbic acid, reference compound] | – | – | – | – | – | neuroprotective effect was not observed | no statistically significant neuroprotective effect | no statistically significant neuroprotective effect
17 | NC(Cc1cc(Cl)c(Cl)c(-c2ccc(O)cc2)c1)C(=O)O (centres unmarked) [Compound 15] | – | 13.70 %AAA | 1.45 TE | 33 µM | – | – | – | –
18 | NC(Cc1cc(Cl)c(O)c(-c2cccc(O)c2)c1)C(=O)O (centres unmarked) [Compound 3] | 7.9 µM | 311.56 %AAA | 4.61 TE | – | – | – | – | –
19 | Cc1c(C)c2c(c(C)c1O)CCC(C)(C(=O)O)O2 (centres unmarked) [TX, Trolox, reference compound] | – | – | – | – | – | neuroprotective effect was not observed | no statistically significant neuroprotective effect | no statistically significant neuroprotective effect
20 | COc1c(Cl)cc(CC(N)C(=O)O)cc1-c1cccc(O)c1 (centres unmarked) [Compound 22] | > 100 µM | 2.76 %AAA | 1.38 TE | – | – | – | – | –
21 | NC(Cc1cc(-c2cccc(O)c2)cc([N+](=O)[O-])c1)C(=O)O (centres unmarked) [Compound 9] | 8.2 µM | 43.43 %AAA | 4.67 TE | – | – | – | – | –
22 | Nc1ccc(CC(N)C(=O)O)cc1-c1cccc(O)c1 (centres unmarked) [Compound 6] | 9.1 µM | 67.35 %AAA | 6.09 TE | – | – | – | – | –

From article PMC8840081, “Phenylalanine-Based AMPA Receptor Antagonist as the Anticonvulsant Agent with Neuroprotective Activity—In Vitro and In Vivo Studies” (Molecules, 2022)
